From US20250257045A1, “CAGED GLUTAMATE UNLEASHED BY BLUE AND GREEN LIGHT: INNOVATIVE PHOTOSENSITIVE CONTROL” (Florida Institute of Technology, Inc., priority 2024, published 2025)

Tests used:
[1] = UV-Vis absorption of caged Glu compounds; format: physicochemical; conditions: for λMax: maximum absorbance wavelength; for ε(λMax): molar attenuation constant at λMax
Protocol: (§1) After purification, the organic solvent was removed by rotovap under vacuum and the remaining aqueous concentrate was subjected to a freeze-drying system (lyophilizer-Freezone 4.5 made by LABCONCO) to isolate the purified final product. The preparation of the caged compounds and their corresponding purifications were conducted under red light in the dark. Final products were covered with aluminum foil and stored at −20° C. until further needed. Each product was characterized by Proton Nuclear Magnetic Resonance (hereinafter “1H NMR”) and Carbon-13 Nuclear Magnetic Resonance (hereinafter “^13C NMR”) using Bruker 400 MHZ NMR spectrometer instrumentation. NMR solvents such as CDCl3 and (CD3)2CO were purchased from the Cambridge Isotope Laboratories. Chemical shifts were reported relative to the internal standard peak of tetramethylsilane (TMS). […] Referring to FIG. 10, irradiation rigs constructed of two round metal containers stacked with blue LED strips (467 nm) and green LED strips (520 nm) on their inner walls were used as photoreactors to irradiate the caged molecules in photochemical studies. The light flux was determined using liquid-phase potassium ferrioxalate actinomentry.
Referring to FIG. 6, a comprehensive assessment of 11 visible light-activated caged Glutamate (Glu) compounds was conducted using photophysical methods.

[2] = Photolysis (uncaging) kinetics under blue/green LED irradiation; quantum yield by UV and 1H NMR with ferrioxalate actinometry; format: physicochemical; conditions: for Φ (quantum yield / QE of uncaging): irradiation at 467 nm (TC) or 520 nm (BODIPY), LED flux 12.8 Wm-2, 23° C.; for εΦ (photo-cross-section): product of ε and Φ; for wavelength of visible light that activates / uncages the cage: single photon visible light
Protocol: as §1
The inventors studied the kinetics of uncaging of the two caged Glu designs (TC and BODIPY) and compared their efficiency of uncaging under identical conditions. They were irradiated with blue light at 467 nm and green light at 520 nm, respectively. Referring to FIG. 10, a temperature-controlled rig with purchased LED strips was set up.
The process for conducting the irradiation experiments comprised the following:
Sample Preparation: The caged molecules (containing the BODIPY photocage and Glutamate) were prepared in a solvent at a predetermined concentration. The solution was carefully prepared to ensure uniform dispersion of the molecules.
Irradiation Setup: The irradiation experiments were performed in a custom-built irradiation chamber equipped with the necessary safety measures (FIG. 10). The chamber was designed to prevent any unwanted exposure to the irradiation source and to maintain a controlled environment throughout the experiment.
Irradiation Source: The irradiation source used was from LED light Strips. This source was selected based on its wavelength range, intensity, and compatibility with the caged molecules' photochemistry. The source was positioned within the irradiation chamber to ensure an even and consistent illumination of the sample.
Sample Exposure: The sample solution was placed in a suitable container, ensuring that the solution thickness was uniform to minimize potential variations in the irradiation process. The container was positioned at a specific distance from the irradiation source, and the entire setup was shielded from external light sources to prevent interference.
Irradiation Protocol: The sample was irradiated for a predetermined duration, with the irradiation source emitting light at the desired wavelength range. The irradiation time was carefully controlled to maintain consistency across experiments.
Monitoring and Data Collection: Throughout the irradiation process, the changes in the sample's properties were monitored using spectroscopic techniques such as UV-Vis spectroscopy and NMR spectroscopy, depending on the specific properties being investigated. Data was collected at regular intervals to track the progress of the photochemical reaction.
Control Experiments: To validate the effects of irradiation, control experiments were conducted using identical conditions but without the presence of the caged molecules.
The quantification of the laser flux comprised the following:
A liquid-phase potassium ferrioxalate actinometer was prepared to measure the intensity of light in our irradiation rig, i.e., light flux, necessary for measurement of the quantum yields of various photochemical reactions.

[3] = prior art caged Glu; cited from earlier work

| Molecule | λMax [1] | ε(λMax) [1] | Φ (quantum yield / QE of uncaging) [2] | εΦ (photo-cross-section) [2] | Φ (quantum yield / QE of uncaging) [2]; 8 | Φ (quantum yield / QE of uncaging) ([2]; listed as Me-BODIPY-Br-Glu) | wavelength of visible light that activates / uncages the cage [2] | absorption maximum [3] | quantum yield (Φ) [3] |
| --- | --- | --- | --- | --- | --- | --- | --- | --- | --- |
| CCC1=C(C)C2=C(COC(=O)CCC(N)C(=O)O)c3c(C)c(CC)c(C)n3[B-](C)(C)[N+]2=C1C (centres unmarked) [Me-BODIPY-Et-Glu (7), 2-Amino-5-((2,8-diethyl-1,3,5,5,7,9-hexamethyl-5H-414,514-dipyrrolo[1,2-c: 2′, 1′-f] [1,3,2]diazaborinin-10-yl)methoxy)-5-oxopentanoic acid] | 532 nm | 35700 ± 180 M⁻¹ cm⁻¹ | 0.029 ± 0.001 | 1040.0 M⁻¹ cm⁻¹ |  |  |  |  |  |
| CC1=C(Br)C(C)=[N+]2C1=C(COC(=O)CCC(N)C(=O)O)c1c(C)c(Br)c(C)n1[B-]2(C)C (centres unmarked) [Me-BODIPY-Br-Glu (8), 2-Amino-5-((2,8-dibromo-1,3,5,5,7,9-hexamethyl-5H-414,514-dipyrrolo[1,2-c: 2′, 1′-f] [1,3,2]diazaborinin-10-yl)methoxy)-5-oxopentanoic acid] | 531 nm | 54200 ± 240 M⁻¹ cm⁻¹ | 0.65 ± 0.01 | 35230.0 M⁻¹ cm⁻¹ | 0.65 | 0.65 | 540 nm |  |  |
| N[C@@H](CCC(=O)N1CCc2c(OCC(=O)O)c([N+](=O)[O-])cc([N+](=O)[O-])c21)C(=O)O [CDNI-Glu] |  |  |  |  |  |  |  | 350 nm | 0.5 |
| 7-Diethylamino-4-carboxylmethyl-thiocoumarin glutamate [TC-N-Glu (1)] | 461 nm | 21800 ± 100 M⁻¹ cm⁻¹ | 0.0017 ± 0.0002 | 38.2 M⁻¹ cm⁻¹ |  |  | 445 nm |  |  |
| CCC1=C(C)C2=C(COC(=O)CCC(N)C(=O)O)c3c(C)c(CC)c(C)n3[B-](F)(F)[N+]2=C1C (centres unmarked) [F-BODIPY-Et-Glu (10), 2-Amino-5-((2,8-diethyl-5,5-difluoro-1,3,7,9-tetramethyl-5H-414,514-dipyrrolo[1,2-c: 2′, 1′-f] [1,3,2]diazaborinin-10-yl)methoxy)-5-oxopentanoic acid] | 542 nm | 57200 ± 280 M⁻¹ cm⁻¹ | 0.0077 ± 0.0004 | 439.0 M⁻¹ cm⁻¹ |  |  |  |  |  |
| CCC1=C(C)C2=C(COC(=O)NC(CCC(=O)O)C(=O)O)c3c(C)c(CC)c(C)n3[B-](C)(C)[N+]2=C1C (centres unmarked) [Me-BODIPY-Et-N-Glu (2), (((2,8-Diethyl-1,3,5,5,7,9-hexamethyl-5H-414,514-dipyrrolo[1,2-c: 2′, 1′-f] [1,3,2]diazaborinin-10-yl)methoxy)carbonyl) glutamic acid] | 532 nm | 24000 ± 120 M⁻¹ cm⁻¹ | 0.095 ± 0.003 | 2270.0 M⁻¹ cm⁻¹ |  |  |  |  |  |
| CC1=CC(C)=[N+]2C1=C(COC(=O)CCC(N)C(=O)O)c1c(C)cc(C)n1[B-]2(C)C (centres unmarked) [Me-BODIPY-H-Glu (6), 2-Amino-5-((1,3,5,5,7,9-hexamethyl-5H-414,514-dipyrrolo[1,2-c: 2′, 1′-f] [1,3,2]diazaborinin-10-yl)methoxy)-5-oxopentanoic acid] | 511 nm | 43600 ± 200 M⁻¹ cm⁻¹ | 0.074 ± 0.002 | 3230.0 M⁻¹ cm⁻¹ |  |  |  |  |  |
| CC1=C(Br)C(C)=[N+]2C1=C(COC(=O)CCC(N)C(=O)O)c1c(C)c(Br)c(C)n1[B-]2(F)F (centres unmarked) [F-BODIPY-Br-Glu (11), 2-Amino-5-((2,8-dibromo-5,5-difluoro-1,3,7,9-tetramethyl-5H-414,514-dipyrrolo[1,2-c: 2′, 1′-f] [1,3,2]diazaborinin-10-yl)methoxy)-5-oxopentanoic acid] | 544 nm | 10300 ± 80 M⁻¹ cm⁻¹ | 0.0004 ± 0.00001 | 4.2 M⁻¹ cm⁻¹ |  |  |  |  |  |
| CCC1=C(C)C2=C(COC(=O)NC(CCC(=O)O)C(=O)O)c3c(C)c(CC)c(C)n3[B-](F)(F)[N+]2=C1C (centres unmarked) [F-BODIPY-Et-N-Glu (5), (((2,8-Diethyl-5,5-difluoro-1,3,7,9-tetramethyl-5H-414,514-dipyrrolo[1,2-c: 2′, 1′-f] [1,3,2]diazaborinin-10-yl)methoxy)carbonyl) glutamic acid] | 542 nm | 78300 ± 400 M⁻¹ cm⁻¹ | 0.0001 ± 0.00001 | 10.9 M⁻¹ cm⁻¹ |  |  |  |  |  |
| CC1=CC(C)=[N+]2C1=C(COC(=O)CCC(N)C(=O)O)c1c(C)cc(C)n1[B-]2(F)F (centres unmarked) [F-BODIPY-H-Glu (9), 2-Amino-5-((5,5-difluoro-1,3,7,9-tetramethyl-5H-414,514-dipyrrolo[1,2-c: 2′, 1′-f] [1,3,2]diazaborinin-10-yl)methoxy)-5-oxopentanoic acid] | 517 nm | 84600 ± 500 M⁻¹ cm⁻¹ | 0.0001 ± 0.00002 | 4.7 M⁻¹ cm⁻¹ |  |  |  |  |  |
| CC1=C(Br)C(C)=[N+]2C1=C(COC(=O)NC(CCC(=O)O)C(=O)O)c1c(C)c(Br)c(C)n1[B-]2(C)C (centres unmarked) [Me-BODIPY-Br-N-Glu (3), (((2,8-Dibromo-1,3,5,5,7,9-hexamethyl-5H-414,514-dipyrrolo[1,2-c: 2′, 1′-f] [1,3,2]diazaborinin-10-yl)methoxy)carbonyl) glutamic acid] | 532 nm | 8213 ± 50 M⁻¹ cm⁻¹ | 0.12 ± 0.04 | 985.6 M⁻¹ cm⁻¹ |  |  |  |  |  |
| CC1=C(I)C(C)=[N+]2C1=C(COC(=O)NC(CCC(=O)O)C(=O)O)c1c(C)c(I)c(C)n1[B-]2(C)C (centres unmarked) [Me-BODIPY-I-N-Glu (4), (((2,8-Diiodo-1,3,5,5,7,9-hexamethyl-5H-414,514-dipyrrolo[1,2-c: 2′, 1′-f] [1,3,2]diazaborinin-10-yl)methoxy)carbonyl) glutamic acid] | 536 nm | 10030 ± 70 M⁻¹ cm⁻¹ | 0.15 ± 0.01 | 1504.6 M⁻¹ cm⁻¹ |  |  |  |  |  |
